Laboratory results from PubChem BioAssay AID248 (DTP/NCI, 2004).
Several values for one entry are separate records, joined by “and”; a condition that tells them apart may be missing. Identical values can stand only once. Toxic doses and inconclusive results are not listed. Rule as the data show it: active = T/C of 150% or more; inactive = T/C below 125%.

Test system: L1210 leukemia ip in BDF1 mice, survival T/C
Assay: NCI In Vivo Anticancer Drug Screen. Data for tumor model L1210 Leukemia (intraperitoneal) in B6D2F1 (BDF1) mice
Conditions: endpoint: mean survival time, higher = longer survival
Procedure, shortened: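 Read-out is survival time, reported as the treated-group measurement over the vehicle-control measurement.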

[1] = dose: 100.0 mg/kg/injection, schedule: Q04DX003 (ip), vehicle: other
[2] = dose: 100.0 mg/kg/injection, schedule: Q04DX003 (ip), vehicle: saline with Tween-80
[3] = dose: 200.0 mg/kg/injection, schedule: Q04DX003 (ip), vehicle: other
[4] = dose: 400.0 mg/kg/injection, schedule: Q04DX003 (ip), vehicle: other
[5] = dose: 100.0 mg/kg/injection, schedule: Q04DX003 (ip), vehicle: Klucel (hydroxypropylcellulose) (HPC)
[6] = dose: 200.0 mg/kg/injection, schedule: Q04DX003 (ip), vehicle: Klucel (hydroxypropylcellulose) (HPC)
[7] = dose: 400.0 mg/kg/injection, schedule: Q04DX003 (ip), vehicle: Klucel (hydroxypropylcellulose) (HPC)
[8] = dose: 100.0 mg/kg/injection, schedule: Q01DX009 (ip), vehicle: Klucel (hydroxypropylcellulose) (HPC)
[9] = dose: 200.0 mg/kg/injection, schedule: Q01DX009 (ip), vehicle: Klucel (hydroxypropylcellulose) (HPC)
[10] = dose: 400.0 mg/kg/injection, schedule: Q01DX009 (ip), vehicle: Klucel (hydroxypropylcellulose) (HPC)

Measured: T/C

O=C1CC2OCC=C3C[N+]4(SS(=O)(=O)[O-])CCC56c7ccccc7N1C5C2C3CC64 (stereo not drawn)
inactive: dose: 0.15 mg/kg/injection, schedule: Q01DX009 (ip), vehicle: saline 93 % of control | dose: 0.31 mg/kg/injection, schedule: Q01DX009 (ip), vehicle: saline 95 % of control | dose: 0.31 mg/kg/injection, schedule: Q04DX003 (ip), vehicle: acetone 108 % of control | dose: 0.62 mg/kg/injection, schedule: Q01DX009 (ip), vehicle: saline 93 % of control | dose: 0.62 mg/kg/injection, schedule: Q04DX003 (ip), vehicle: acetone 108 % of control | dose: 0.92 mg/kg/injection, schedule: Q01DX009 (ip), vehicle: saline 92 % of control | dose: 1.25 mg/kg/injection, schedule: Q01DX001 (ip), vehicle: saline 98 % of control | dose: 1.25 mg/kg/injection, schedule: Q04DX003 (ip), vehicle: acetone 88 % of control | dose: 1.4 mg/kg/injection, schedule: Q01DX009 (ip), vehicle: saline 92 % of control

CC(Br)C(=O)NC(Cc1ccccc1)C(=O)O (stereo not drawn)
inactive: dose: 100.0 mg/kg/injection, schedule: Q01DX009 (ip), vehicle: alcohol 93 % of control | [1] 104 % of control | [2] 94 % of control | dose: 200.0 mg/kg/injection, schedule: Q01DX009 (ip), vehicle: alcohol 100 % of control | [3] 104 % of control and 88 % of control | dose: 200.0 mg/kg/injection, schedule: Q04DX003 (ip), vehicle: saline with Tween-80 96 % of control | dose: 400.0 mg/kg/injection, schedule: Q01DX009 (ip), vehicle: alcohol 90 % of control | [4] 92 % of control and 88 % of control | dose: 400.0 mg/kg/injection, schedule: Q04DX003 (ip), vehicle: saline with Tween-80 91 % of control

CCCCCCCCCc1ccc(OP(Oc2ccccc2)Oc2ccc(CCCCCCCCC)cc2)cc1
inactive: dose: 75.0 mg/kg/injection, schedule: Q01DX001 (ip), vehicle: saline 100 % of control | dose: 150.0 mg/kg/injection, schedule: Q01DX001 (ip), vehicle: saline 109 % of control

COc1cc2cc3c4cc(OC)c(OC)cc4cc[n+]3c(/C=C/c3cc([N+](=O)[O-])ccc3O)c2cc1OC
inactive: dose: 100.0 mg/kg/injection, schedule: Q01DX001 (ip), vehicle: other 97 % of control and 100 % of control | dose: 100.0 mg/kg/injection, schedule: Q04DX002 (ip), vehicle: other 112 % of control and 92 % of control | [1] 106 % of control | dose: 200.0 mg/kg/injection, schedule: Q01DX001 (ip), vehicle: other 97 % of control and 103 % of control | dose: 200.0 mg/kg/injection, schedule: Q04DX002 (ip), vehicle: other 95 % of control and 88 % of control | [3] 106 % of control | dose: 400.0 mg/kg/injection, schedule: Q01DX001 (ip), vehicle: other 96 % of control and 107 % of control | dose: 400.0 mg/kg/injection, schedule: Q04DX002 (ip), vehicle: other 94 % of control and 98 % of control | [4] 101 % of control

Cc1ccc(/C=C\C(=O)c2ccccc2)cc1
inactive: [5] 100 % of control | [6] 96 % of control | [7] 102 % of control

Nc1nc(N)c(N=O)c(Nc2ccc(I)cc2)n1
inactive: dose: 40.0 mg/kg/injection, schedule: Q01DX Z (ip), vehicle: carboxymethylcellulose (CMC) 102 % of control | dose: 50.0 mg/kg/injection, schedule: Q01DX009 (ip), vehicle: acetone 108 % of control | dose: 50.0 mg/kg/injection, schedule: Q04DX003 (ip), vehicle: carboxymethylcellulose (CMC) 109 % of control | dose: 60.0 mg/kg/injection, schedule: Q01DX Z (ip), vehicle: carboxymethylcellulose (CMC) 104 % of control | dose: 90.0 mg/kg/injection, schedule: Q01DX Z (ip), vehicle: carboxymethylcellulose (CMC) 88 % of control | dose: 100.0 mg/kg/injection, schedule: Q01DX001 (ip), vehicle: carboxymethylcellulose (CMC) 101 % of control | dose: 100.0 mg/kg/injection, schedule: Q01DX009 (ip), vehicle: acetone 106 % of control | dose: 100.0 mg/kg/injection, schedule: Q04DX003 (ip), vehicle: carboxymethylcellulose (CMC) 106 % of control | dose: 135.0 mg/kg/injection, schedule: Q01DX Z (ip), vehicle: carboxymethylcellulose (CMC) 89 % of control | dose: 200.0 mg/kg/injection, schedule: Q01DX001 (ip), vehicle: carboxymethylcellulose (CMC) 101 % of control | dose: 200.0 mg/kg/injection, schedule: Q04DX003 (ip), vehicle: carboxymethylcellulose (CMC) 96 % of control

CNc1ccccc1C#N
inactive: [8] 102 % of control | [5] 93 % of control | [9] 98 % of control | [6] 95 % of control | [10] 109 % of control | [7] 97 % of control

CC(=O)[O][Pb]([CH2]C(C)C)([CH2]C(C)C)[CH2]C(C)C
inactive: dose: 1.5 mg/kg/injection, schedule: Q01DX009 (ip), vehicle: Klucel (hydroxypropylcellulose) (HPC) 97 % of control | dose: 3.0 mg/kg/injection, schedule: Q01DX001 (ip), vehicle: Klucel (hydroxypropylcellulose) (HPC) 91 % of control | dose: 3.0 mg/kg/injection, schedule: Q01DX009 (ip), vehicle: Klucel (hydroxypropylcellulose) (HPC) 95 % of control | dose: 6.0 mg/kg/injection, schedule: Q01DX001 (ip), vehicle: Klucel (hydroxypropylcellulose) (HPC) 96 % of control | dose: 6.0 mg/kg/injection, schedule: Q01DX009 (ip), vehicle: Klucel (hydroxypropylcellulose) (HPC) 95 % of control | dose: 6.25 mg/kg/injection, schedule: Q01DX009 (ip), vehicle: Klucel (hydroxypropylcellulose) (HPC) 96 % of control | dose: 12.0 mg/kg/injection, schedule: Q01DX001 (ip), vehicle: Klucel (hydroxypropylcellulose) (HPC) 92 % of control | dose: 12.5 mg/kg/injection, schedule: Q04DX002 (ip), vehicle: Klucel (hydroxypropylcellulose) (HPC) 96 % of control

C/C(=N/N=C(/C)c1ccccc1)c1ccccc1
inactive: dose: 50.0 mg/kg/injection, schedule: Q04DX003 (ip), vehicle: Klucel (hydroxypropylcellulose) (HPC) 110 % of control | [8] 96 % of control | [5] 94 % of control | [9] 100 % of control | [6] 103 % of control | [10] 96 % of control | [7] 97 % of control

Cc1ccn(-c2cc(NS(=O)(=O)c3ccccc3)c3ccccc3c2NS(=O)(=O)c2ccccc2)c(=O)c1
inactive: dose: 50.0 mg/kg/injection, schedule: Q01DX001 (ip), vehicle: Klucel (hydroxypropylcellulose) (HPC) 107 % of control | dose: 100.0 mg/kg/injection, schedule: Q01DX001 (ip), vehicle: Klucel (hydroxypropylcellulose) (HPC) 94 % of control | dose: 200.0 mg/kg/injection, schedule: Q01DX001 (ip), vehicle: Klucel (hydroxypropylcellulose) (HPC) 97 % of control

CC1CN1P(=O)(OCCC#N)N1CC1C (stereo not drawn)
inactive: dose: 50.0 mg/kg/injection, schedule: Q01DX009 (ip), vehicle: saline 99 % of control and 111 % of control | dose: 100.0 mg/kg/injection, schedule: Q01DX009 (ip), vehicle: saline 110 % of control and 113 % of control | dose: 132.0 mg/kg/injection, schedule: Q04DX003 (ip), vehicle: acetone 109 % of control | dose: 200.0 mg/kg/injection, schedule: Q01DX009 (ip), vehicle: saline 108 % of control | dose: 400.0 mg/kg/injection, schedule: Q01DX009 (ip), vehicle: saline 96 % of control

CCCCCCCCCCCCNC
inactive: dose: 12.5 mg/kg/injection, schedule: Q01DX009 (ip), vehicle: saline with Tween-80 92 % of control | dose: 25.0 mg/kg/injection, schedule: Q01DX009 (ip), vehicle: saline with Tween-80 93 % of control | dose: 25.0 mg/kg/injection, schedule: Q04DX003 (ip), vehicle: saline with Tween-80 103 % of control | dose: 50.0 mg/kg/injection, schedule: Q01DX009 (ip), vehicle: saline with Tween-80 91 % of control | dose: 50.0 mg/kg/injection, schedule: Q04DX003 (ip), vehicle: saline with Tween-80 93 % of control | [2] 93 % of control

CCCCCCCCCCCCOP(=S)(S)OCCCCCCCCCCCC (tested in a mixture with another compound)
inactive: dose: 25.0 mg/kg/injection, schedule: Q01DX009 (ip), vehicle: Klucel (hydroxypropylcellulose) (HPC) 94 % of control | dose: 25.0 mg/kg/injection, schedule: Q04DX002 (ip), vehicle: Klucel (hydroxypropylcellulose) (HPC) 87 % of control | dose: 50.0 mg/kg/injection, schedule: Q01DX009 (ip), vehicle: Klucel (hydroxypropylcellulose) (HPC) 91 % of control | dose: 50.0 mg/kg/injection, schedule: Q04DX002 (ip), vehicle: Klucel (hydroxypropylcellulose) (HPC) 90 % of control | dose: 100.0 mg/kg/injection, schedule: Q04DX002 (ip), vehicle: Klucel (hydroxypropylcellulose) (HPC) 99 % of control and 100 % of control
